Data: patent US11786555B2, “RAR selective agonists in combination with immune modulators for cancer immunotherapy” (IO THERAPEUTICS, INC., priority 2017, dated 2023)

Columns and labels:
Kasumi-1 cells = test: CFU experiments, off and on stroma; type: cell-based; settings: 10^−6 M ATRA, IRX5183, or 10^−7 M AM80
Text: (§1) Data across three independent experiments.

NB4 cells = test: CFU experiments, off and on stroma; type: cell-based; settings: 10^−7 M ATRA, IRX5183, or 10^−8 M AM80
Text: as §1

OCI-AML3 cells = test: CFU experiments, off and on stroma; type: cell-based; settings: 10^−6 M ATRA, IRX5183, or 10^−7 M AM80
Text: as §1

[1] = system: H929 cells and primary CD138+ MM cells; test: clonogenic or cellular recovery of MM cells after BTZ treatment; type: cell-based, human; settings: for sensitivity of MM cells to BTZ: BTZ 2.5 nM for 48 hours
Experimental: FIG. 4A-B depicts the clonogenic recovery (CFU) of H929 cells (FIG. 4A) or cellular recovery of primary CD138+ MM cells from 3 different patient samples (FIG. 4B). MM cells were treated with bortezomib (BTZ; 2.5 nM) for 48 hours after being incubated for 5 days either in the absence of stroma (Liquid), with or without the pan-RAR inhibitor AGN (1 μM), or in the presence of BM mesenchymal cells (Stroma), with or without the CYP26 inhibitor R115 (1 μM) or the CYP26-resistant retinoid IRX (1 μM). Clonogenic or cellular recovery was normalized to each condition in the absence of BTZ.
(§2) Coculture experiments. 24-well plates were coated with 0.1% gelatin in PBS for 30 min at 37° C. The gelatin solution was removed, and the stromal cells were cultured overnight at a density of 5×10^4 cells/well to obtain a confluent monolayer. At that time, MM cell lines or primary MM cells (1×10^5 in 2 ml) were added to the stroma cultures. The stroma cocultures were incubated at 37° C. in RPMI containing 10% FCS, L-glutamine, and P/S, with or without AGN194310 (1 μM for 5 days), R115866 (1 μM for 5 days), IRX5183 (1 μM for 5 days), or BTZ (2.5 nM for 48 hr).
Clonogenic assays. After treatment, MM cells were collected, washed with PBS, and plated at a density of 5,000 cells/ml in 1 ml of 1.32% methylcellulose supplemented with 30% FBS, 10% BSA, L-glutamine, P/S, and 0.1 mM β-ME. Cells were plated in triplicate in 35-mm culture dishes, incubated at 37° C., and scored for the presence of colonies 14 days later.
A RA-low microenvironment induces BTZ resistance. To determine whether decreased retinoid signaling contributes to BTZ resistance within the BM niche, MM cell lines and MM CD138+ primary cells were incubated with BM stroma for 5 days, followed by BTZ treatment.

H929 cells = test: mobilization experiment, BTZ after separation from BM stroma; type: cell-based, human
Experimental: FIG. 5 depicts clonogenic recovery of H929 cells treated with BTZ (2.5 nM). MM cells were incubated for 5 days in the absence (Liquid) or presence of BM mesenchymal cells (Stroma), with or without R115 (1 μM). Following this preincubation, H929 cells were separated from BM stroma, cultured in fresh media for 0 to 48 hours, and then treated with BTZ (2.5 nM) for 48 hours. Clonogenic recovery was normalized to each condition in the absence of BTZ.
Mobilization experiments. MM cells were separated from BM stromal cells by gently pipetting several times around the well. Detached cells were centrifuged, resuspended in fresh media, and incubated in a 24-well plate for 1 hr at 37° C. During this short incubation period, contaminating stromal cells attached to the well, while MM cells remained in suspension. MM cells were then recovered by gently pipetting. This protocol was used for qRT-PCR and CFU coculture experiments. […]
Clonogenic assays. […] Cells were plated in triplicate in 35-mm culture dishes, incubated at 37° C., and scored for the presence of colonies 14 days later.
Strategies to overcome microenvironment-dependent chemoprotection have focused on mobilization of cancer cells from the BM niche into the peripheral circulation. It was analyzed whether the change in phenotype and subsequent BTZ resistance of MM cells were lost upon separation from the BM stroma, a process that mimics mobilization. […]

H929 Luc+ cells = test: systemic MM xenograft, bioluminescence; type: in vivo, mouse; settings: monotherapy, 4 weeks; BTZ 0.5 mg/kg i.p. twice weekly, IRX 10 mg/kg once daily
Experimental: FIG. 6 depicts bioluminescent images of systemic MM xenografts. Following engraftment of H929 Luc+ cells, mice were treated with IRX (n=4), BTZ (n=5), or a combination of both (n=5) for 4 weeks. Data represent the mean±SEM of the fold change in bioluminescence (photons/second) from day 0.
For the systemic MM model, 2×10^6 Luc+/GFP+ H929 cells were injected via the tail vein into 16-week-old male NSG mice. After engraftment, as determined by an exponential increase in bioluminescence, mice were treated with BTZ (0.5 mg/kg i.p.) twice weekly and with IRX (10 mg/kg) once daily. Tumor burden was assessed by bioluminescence, as above.
To test whether retinoids can enhance BTZ activity in MM, a systemic MM xenograft was developed by injecting 2×10^6 H929 luciferase+ (Luc+) cells via the tail vein of non-obese, diabetic, severe combined immunodeficiency IL-2 receptor y-KO (NSG) mice. The animals were randomized to receive IRX, BTZ, or a combination of both, and disease burden was followed weekly by bioluminescence imaging (FIG. 6).

[2] = system: H929 Luc+ cells with WT or Smo-KO stroma; test: subcutaneous xenograft model of MM-niche interactions, bioluminescence; type: in vivo, mouse; settings: BTZ 0.5 mg/kg i.p. twice weekly
Experimental: FIG. 9 depicts bioluminescent images of mice showing tumor burden during 4 weeks of treatment with IRX (10 mg/kg), BTZ (0.5 mg/kg), or the combination. Anterior tumors consisted of a combination of MM.1S luciferase^+ cells and Smo^FI/FI BM stroma cells transduced with a control vector (WT BM stroma). Posterior tumors consisted of a combination of MM.1S luciferase^+ cells and Smo^FI/FI BM stroma cells transduced with Cre-recombinase (Smo KO BM stroma).
FIG. 10 depicts the fold change in bioluminescence (photons/second) of tumors during 4 weeks of treatment. The change in bioluminescence for each tumor […].
Mouse xenografts. 1×10^6 H929 Luc+ cells and 1×10^6 mouse BM stromal cells were resuspended in 100 μl […]®, diluted with RPMI (1:1), and injected subcutaneously into 16-week-old male NSG mice. After 4 days, treatment with BTZ (0.5 mg/kg i.p. twice weekly) and IRX (10 mg/kg i.p. daily) was initiated. Tumor burden was assessed by bioluminescence using the In Vivo Imaging System (PerkinElmer). For imaging, mice were exposed to 120 mg/kg D-luciferin via intraperitoneal injection […] before imaging and were anesthetized using isoflurane. Images were analyzed with Living Image Software, version 2.5 (PerkinElmer), and data were quantified as photons/second.
To study to what extent an RA-low environment created by the BM stroma and enhanced by MM cells via paracrine Hedgehog signaling contributes to BTZ resistance, a xenograft model of MM-niche interactions was developed. Each mouse carried 2 subcutaneous tumors consisting of H929 Luc+ cells and either WT (anterior tumors) or Smo-KO stroma (posterior tumors). Mice were treated with IRX (10 mg/kg i.p. daily), BTZ (0.5 mg/kg i.p. twice weekly), or a combination of both. The growth of tumors bearing WT or Smo-KO stroma was not different in untreated or IRX-treated groups (FIGS. 9 and 10). […] While some tumors in the treatment group receiving combined IRX and BTZ appeared to have regressed completely, even after anatomical study, this was not the case for all the mice in this group.

[3] = system: H929 cells and CD138+ primary MM cells; test: qRT-PCR of B cell and PC markers in MM cells, liquid or BM stroma co-culture; type: cell-based, human
Experimental: FIG. 3A-H depicts the relative concentration of plasma markers BCL6 (FIG. 3A and E), BLIMP-1 (FIG. 3B and F), XBPS-1 (FIG. 3C and G), and CHOP (FIG. 3D and H) in multiple myeloma (MM) cell lines H929 (FIG. 3A-D) or CD138+ MM cells from three different patient samples (FIG. 3E-H) incubated for 5 days either in the absence of stroma (Liquid), with or without AGN (RA receptor antagonist AGN194310, 1 μM), or co-cultured with BM mesenchymal cells (Stroma), with or without R115 (CYP26 inhibitor R115866, 1 μM) or IRX (CYP26-resistant retinoid IRX5183, 1 μM). Expression in untreated liquid conditions was set at 1. Data are representative of 3 independent experiments with similar results and represent the mean ±SEM. *P≤0.05 and **P≤0.01, by repeated-measures 1-way ANOVA for determination of statistical significance between groups; P values were corrected for multiple comparisons using Dunnett's test. Ctrl, control; max, maximum.
as §2
(§3) qRT-PCR. Total RNA was extracted using the RNeasy Mini Kit (QIAGEN) according to the manufacturer's instructions. cDNA was synthesized by reverse transcription using the iScript cDNA Synthesis Kit (Bio-Rad). qRT-PCR was performed with iTaq SYBR Green Supermix (Bio-Rad) using sequence specific primers. Gene expression was normalized to GAPDH, and relative quantification was calculated using ΔΔCt. All experiments were performed in duplicate and run on the Bio-Rad CFX96 machine.
The BM microenvironment (also called “niche”) limits PC differentiation by modulating retinoid signaling. A population of MM progenitors, phenotypically similar to B cells, is intrinsically resistant to BTZ and contributes to MRD and relapse. To investigate whether the BM niche plays a role in determining the phenotype of MM cells, the mRNA expression of B cell and PC markers in MM H929 cell lines (FIG. 3A-D) and MM CD138+ primary cells (FIG. 3E-H) was analyzed following co-culture with mouse BM stroma using human-specific primers. […] In contrast, co-culture of MM cells with BM stroma decreased the mRNA expression of B lymphocyte-induced maturation protein 1 (BLIMP1) and spliced X box-binding protein 1 (XBP1s) (FIG. 3B, C, F, G), which are critical mediators of PC differentiation.
The BM niche regulates hematopoietic stem cell (HSC) differentiation by expressing the retinoid-inactivating enzyme CYP26. CYP26 enzymes were highly expressed in BM mesenchymal cells, while their expression was barely detectable in MM cells. Since retinoid signaling promotes PC differentiation and potentiates Ig secretion, it was determined whether stromal CYP26 is responsible for inducing a B cell phenotype in MM cells. To this end, co-culture conditions were treated with the CYP26 inhibitor R115866 (R115) or the CYP26-resistant RA receptor α-selective (RARα-selective) retinoid IRX5183 (IRX).

BM stromal cells = test: CYP26A1 expression in BM stromal cells exposed to soluble factors; type: cell-based; settings: soluble factors tested
Experimental: as §3

CC1=C(/C=C/C(C)=C/C=C/C(C)=C/C(=O)O)C(C)(C)CCC1 [ATRA, all-trans retinoic acid]
clonogenic growth (CFU), differentiation and elimination of AML (Kasumi-1 cells): stroma blockage
clonogenic growth (CFU), differentiation and elimination of AML (NB4 cells): stroma blockage
clonogenic growth (CFU), differentiation and elimination of AML (OCI-AML3 cells): stroma blockage

CC(C)C[C@H](NC(=O)[C@H](Cc1ccccc1)NC(=O)c1cnccn1)B(O)O [BTZ, bortezomib]
sensitivity of MM cells to BTZ ([1]; absence of BM stroma (liquid)): highly sensitive to BTZ
sensitivity of MM cells to BTZ ([1]; after 5 days incubation with BM stroma): induced BTZ resistance
BTZ resistance after separation from BM stroma (H929 cells; 5-day stroma co-culture, fresh media 0 to 48 hr, then BTZ 2.5 nM): remained partially resistant to BTZ for up to 48 hr following detachment from stroma
tumor burden (bioluminescence) (H929 Luc+ cells): decreased tumor growth compared with untreated controls
tumor response (bioluminescence) ([2]; tumors carrying Smo-KO stroma): significant response
tumor response (bioluminescence) ([2]; tumors with WT stroma): refractory to BTZ treatment

CCC(CC)C(c1ccc(Nc2nc3ccccc3s2)cc1)n1cncn1 (stereo not drawn) [Compound R115866]
expression of differentiation markers by qRT-PCR or flow cytometry ([3]; liquid conditions compared with BM stroma): did not significantly affect the expression of differentiation markers
mRNA expression of B cell and PC markers (BCL6, BLIMP1, XBP1s, CHOP) ([3]; stroma co-cultures, 1 μM for 5 days): restored all markers to levels comparable to those of liquid control conditions
effect on stroma-induced BTZ resistance ([1]; stroma co-culture, 1 μM for 5 days, then BTZ 2.5 nM): overcome
development of BTZ-resistant phenotype (H929 cells; co-culture treated with 1 μM, then separation and BTZ): prevented the development of a BTZ-resistant phenotype

IL-6: cytokine, soluble factor produced by MM cells
expression of CYP26A1 on BM stromal cells (BM stromal cells): no significant effects

TNF-α
expression of CYP26A1 on BM stromal cells (BM stromal cells): no significant effects
